Assay results from patent publication US7291353B2, “Anti-peptic ulcer activity of an extract of a flower of Woodfordia fruticosa” (Council of Scientific and Industrial Research, priority 2002, dated 2007).

How the values were obtained:
[1] = tested on: frog gastric mucosa (histamine stimulated acid secretion); experiment: Frog Chamber Study: histamine-stimulated acid secretion of chambered frog gastric mucosa; parameters: species or system Rana hexadactyla; key to Comment (qualitative rank score): the rank score for both cimetidine and omeprazole (considered as 100%) were given as +8; conditions: for concentration enough to block almost complete acid secretion: 0.1-0.2 mM histamine; for Comment (qualitative rank score): cimetidine and omeprazole (100%) = +8
Description: Frog Chamber Study: The in organ experiments using the whole frog stomach to assess the anti-HCl secreting potential of extracts and their fractions were carried out employing Frog Chamber Model (for detail about the logic of the experiment and the information to be generated.
Frog Chamber Study: The study is based on the principle of ‘No Acid No Ulcer’. […] In this in vitro study, frog stomach is mounted in a plastic tube (Using Chamber Study). Employing histamine as the ulcerogen (final common mediator of all the physiological secretagogues), the rate and extent of proton secretion are quantitatively assessed as a function of the amount of herbal preparation and duration of treatment.
The experimental approach, as standardized through a series of experiments with more than 200 plant extracts, has been to measure, over time, (i) basal acid secretion, (ii) histamine-stimulated acid secretion, (iii) extract-induced (two doses) acid secretion, followed by (iv) extract-withdrawn acid secretion. For a particular stomach, after the basal secretion level is known, histamine is inserted from the nutrient side to see maximum acid secreting potential. Thereafter, an extract is inserted (first lower dose and then higher dose) from the nutrient side in presence of continuous supply of histamine to mimic ulcerative situation, followed by withdrawal of the extract by washing the nutrient side with histamine-containing nutrient medium. This latter phase is expected to generate information regarding the efficacy of the extract, upon its withdrawal, towards inhibiting the continuously existing acid secreting phase.
Experiments are carried out with in vitro preparations of gastric mucosa mounted over one end of a plastic tube (mounted area is 1.76 cm^2) with the mucosal surface facing out. The mounted tissue is placed vertically inside a 25-ml container. The nutrient solution is regular Frog Ringer solution and the luminal side (secretory side) is bathed in an unbuffered NaCl solution. The volumes of nutrient and mucosal solutions are adjusted in a way so as to be able to maintain constant hydrostatic pressure in the chamber throughout the duration of the experiment. Both solutions are slowly and continuously bubbled with O2 during the entire duration of the experiment. The mucosal solution is slowly and continuously stirred with a magnetic stirrer and collected at 15-min intervals in thoroughly washed clean vials.

[2] = tested on: Helicobacter pylori virulent strain 121 A; experiment: Anti H. pylori Activity, Disc Diffusion Sensitivity Test, strain 121A; type: cell-based; conditions: 0.5 mg/disc; one range stated for both the strains (121A)
[3] = tested on: Helicobacter pylori avirulent strain 80A; experiment: Anti H. pylori Activity, Disc Diffusion Sensitivity Test, strain 80A; type: cell-based; conditions: 0.5 mg/disc; one range stated for both the strains (80A)
Gastric H^+, K^+-ATPase = target: T1, Gastric H^+, K^+-ATPase (Sus scrofa, UniProt P19156); experiment: Anti Gastric Proton Pump Activity Study; type: biochemical, pig; conditions: dose range of 0.3-3.0 mg/assay
T1 construct: These membranes are primarily enriched in tubulovescicular and apical membranes; from tissue; host or cells: pig stomach (gastric mucosa), tubulovesicular and apical membranes
Description: The applicant have selected one whole animal model—Cold Restraint Stress Ulcer in Rat (in vivo) to assess ulcer protection capacity of the extracts [Senay E. C. and Levine R. J., Proc Soc. Exp. Biol. Med. 124, 1221 (1967)], one isolated stomach model—Chambered Frog Gastric Mucosa (in organ) to assess anti HCl secretion potential [Durbin R. P. and Kircher A. B., Biochem. Biophys. Acta, 321, 553 (1973); Ray, T. K. and Tague L. R., Biochem. Pharmacol. 29, 2755 (1980); Ray et al., Proc. Natl. Acad. Sci. (USA) 79, 1448 (1982)], gastric proton pump inhibition model using pig gastric H^+, K^+-ATPase-rich apical and tubulovesicular membranes (in vitro) to examine enzyme inhibition [Bandopadhyay, S. Das, P. K., Wright, M. V., Nandi, J., Bhattacharyya, D. and Ray, T. K., J. Biol. Chem. 262, 5664 (1987)], and anti Helicobacter pylori activity assessment by Disc Diffusion Sensitivity Assay [Glupczynski, Y. In: Helicobacter pylori: techniques for clinical diagnosis & basic research, (Eds. Adrian Lee & Francis Megraud), W. B. Saunders Company Ltd., 1996, pp. 17-32].
3. […] K^+-stimulated activity, referred to as H^+, K^+-ATPase, was calculated as the difference between the activities obtained in presence of Mg^2+ plus K^+ and the basal activity (Mg^2+-ATPase) in presence of MG^2+ alone.

T1 sequence (P19156 2-1034 limits assumed): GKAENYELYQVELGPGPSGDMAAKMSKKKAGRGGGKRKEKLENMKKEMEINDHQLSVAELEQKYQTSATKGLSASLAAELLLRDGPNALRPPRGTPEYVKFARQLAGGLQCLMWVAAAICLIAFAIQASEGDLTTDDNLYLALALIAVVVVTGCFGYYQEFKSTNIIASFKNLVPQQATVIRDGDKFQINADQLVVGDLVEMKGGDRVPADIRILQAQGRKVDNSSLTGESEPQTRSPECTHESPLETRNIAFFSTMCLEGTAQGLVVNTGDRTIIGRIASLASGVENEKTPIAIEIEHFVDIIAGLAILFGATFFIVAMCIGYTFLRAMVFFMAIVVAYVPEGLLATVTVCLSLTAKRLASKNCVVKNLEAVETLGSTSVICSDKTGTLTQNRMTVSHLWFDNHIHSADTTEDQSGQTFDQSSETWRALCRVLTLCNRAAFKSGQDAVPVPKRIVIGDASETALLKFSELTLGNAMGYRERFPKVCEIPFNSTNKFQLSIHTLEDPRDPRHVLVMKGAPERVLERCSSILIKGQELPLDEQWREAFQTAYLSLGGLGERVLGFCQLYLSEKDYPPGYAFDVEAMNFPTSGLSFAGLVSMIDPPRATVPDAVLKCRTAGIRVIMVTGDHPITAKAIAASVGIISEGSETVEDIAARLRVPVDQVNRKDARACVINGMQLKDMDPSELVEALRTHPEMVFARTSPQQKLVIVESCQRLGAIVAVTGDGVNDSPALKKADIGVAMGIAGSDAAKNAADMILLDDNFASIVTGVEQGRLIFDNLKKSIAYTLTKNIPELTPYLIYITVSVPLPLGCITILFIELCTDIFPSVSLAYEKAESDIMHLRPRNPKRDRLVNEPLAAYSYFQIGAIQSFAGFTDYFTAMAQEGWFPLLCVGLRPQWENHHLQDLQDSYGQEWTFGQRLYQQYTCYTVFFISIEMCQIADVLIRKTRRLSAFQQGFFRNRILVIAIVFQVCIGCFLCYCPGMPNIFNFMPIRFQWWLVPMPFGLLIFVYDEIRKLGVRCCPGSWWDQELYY
T1 sequence (P18434 whole entry partner): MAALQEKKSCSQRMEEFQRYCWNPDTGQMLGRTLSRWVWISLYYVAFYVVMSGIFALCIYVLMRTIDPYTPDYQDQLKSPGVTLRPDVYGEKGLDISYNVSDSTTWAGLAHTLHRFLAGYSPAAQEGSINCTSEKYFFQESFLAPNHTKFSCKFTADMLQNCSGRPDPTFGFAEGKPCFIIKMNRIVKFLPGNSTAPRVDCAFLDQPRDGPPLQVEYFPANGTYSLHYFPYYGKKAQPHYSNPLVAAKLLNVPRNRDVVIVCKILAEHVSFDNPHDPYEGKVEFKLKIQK

Structure (SMILES): CN/C(=N/CCSCc1nc[nH]c1C)NC#N [cimetidine]
- concentration enough to block almost complete acid secretion ([1]; added from nutrient side): 0.1 to 0.2 mM
- Comment (qualitative rank score) [1]: +8

Structure (SMILES): CC[C@H]1OC(=O)[C@H](C)[C@@H](O[C@H]2C[C@@](C)(OC)[C@@H](O)[C@H](C)O2)[C@H](C)[C@@H](O[C@@H]2O[C@H](C)C[C@H](N(C)C)[C@H]2O)[C@](C)(OC)C[C@@H](C)C(=O)[C@H](C)[C@@H](O)[C@]1(C)O [clarithromycin]
- inhibition zone diameter [2]: 2.3-2.7 cm
- inhibition zone diameter [3]: 2.3-2.7 cm

Structure (SMILES): COc1ccc2[nH]c([S+]([O-])Cc3ncc(C)c(OC)c3C)nc2c1 (stereo not shown) [omeprazole]
- % inhibition of H^+, K^+-ATPase (Gastric H^+, K^+-ATPase): 50-100%
- concentration enough to block almost complete acid secretion ([1]; added from secretory side): 1 to 10 mM
- Comment (qualitative rank score) [1]: +8
